The record followed here is patent US7985731B2, “Sugar chain added GLP-1 peptide” (Otsuka Chemical Holdings Co., Ltd., priority 2007, dated 2011).

The test system of experiment [1] is db/db (BKS.Cg-+Lepr db/+Lepr db/Jcl) mice. Briefly: Test Example 8: effect of lowering blood-sugar levels in diabetes model mice. The following applies: 9 nmol/kg intraperitoneal; for effect of lowering blood-sugar levels in db/db mice: 10-week-old male mice; for durability of effect of lowering blood-sugar levels in db/db mice: up to 300 minutes. It is filed as in vivo. On the procedure:
The oligosaccharide chain added GLP-1 peptide prepared in Example 2, 3, 4, 21 or 23 or the GLP-1 prepared in Comparative Example 1 in a PBS solution (9 nmol/10 ml) was intraperitoneally administered at a dose of 10 ml/kg to BKS.Cg−+Lepr^db/+Lepr^db/Jcl mice (10 week old, male). Blood was collected from the orbits before the compound administration and 30 minutes, 60 minutes, 120 minutes, 180 minutes and 300 minutes after the compound administration. Blood-sugar levels were measured using ACCU-CHEK Aviva (Roche Diagnostics).
The db/db (BKS.Cg−+Lepr^db/+Lepr^db/Jcl) mice serving as diabetes model mice have a mutation in a receptor of leptin which is anorexigenic/energy metabolism-accelerating hormone and develops conditions such as obesity or hyperglycemia.
Blood-sugar levels were measured over time, and their effects of lowering blood-sugar levels were compared with that of the GLP-1 without oligosaccharide chain addition of Comparative Example 1.

Experiment [2] addresses T1, mouse GLP-1 receptor (Mus musculus, UniProt O35659).
T1 construct: expressed in transfected cells
T1 sequence (O35659 22-463): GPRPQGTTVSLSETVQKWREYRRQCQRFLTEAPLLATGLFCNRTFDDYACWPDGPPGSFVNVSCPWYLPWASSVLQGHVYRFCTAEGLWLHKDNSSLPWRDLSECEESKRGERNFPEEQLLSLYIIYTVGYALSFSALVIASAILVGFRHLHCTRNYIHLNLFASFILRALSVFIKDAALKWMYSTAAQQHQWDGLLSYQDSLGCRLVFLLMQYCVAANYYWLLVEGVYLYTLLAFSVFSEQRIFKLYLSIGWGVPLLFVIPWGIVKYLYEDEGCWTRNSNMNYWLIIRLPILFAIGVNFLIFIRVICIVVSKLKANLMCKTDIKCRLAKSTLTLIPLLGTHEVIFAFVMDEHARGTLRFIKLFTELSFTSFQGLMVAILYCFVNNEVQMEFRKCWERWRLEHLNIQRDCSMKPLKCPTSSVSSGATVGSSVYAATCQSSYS
Briefly: Test Example 6: ability to synthesize cAMP in mouse GLP-1 receptor-expressing CHO-K1 cells. It is filed as cell-based. The procedure:
1. Construction of Mouse GLP-1 Receptor-Expressing Vector
A mouse GLP1 receptor sense primer (5′-[…]-3′) (SEQ ID NO: 152) and a mouse GLP-1 receptor antisense primer (5′-[…]-3′) (SEQ ID NO: 153) capable of binding to the 5′ and 3′ ends of mouse GLP-1 receptor cDNA were separately synthesized. PCR was performed using Ex Taq polymerase (TaKaRa) with cDNA (Clone ID: 40046534, Open Biosystems) as a template. Specifically, 50 μL in total of reaction solution consisting of 1 μL of template cDNA (10 ng/μL), 4 μL of 2.5 mM dNTPs, 1 μL of primer solution mixtures (each 50 μM), 5 μL of ×10 Ex Taq polymerase Buffer, 0.25 μL of Ex Taq polymerase and 38.75 μL of sterilized water was used and allowed to react by 94° C. for 1 minute; 94° C. for 45 seconds, 55° C. for 1 minute and 72° C. for 2 minutes (35 cycles); and 72° C. for 10 minutes. The PCR reaction product was electrophoresed on 1% agarose gel, and the cDNA fragment was purified using Wizard SV Gel and PCR Clean-up System (Promega) and treated with restriction enzymes (EcoRI and NheI) to obtain mouse GLP-1 receptor cDNA.
To efficiently obtain cells highly expressing a mouse GLP-1 receptor, a pIRES-gfp vector was used as an expression vector. This vector was prepared by inserting, to a vector pEGFP-N1 (Clontech), an IRES gene-containing DNA fragment obtained by the restriction enzyme treatment (Sal I and BamHI) of pIRESpuro2 (Clontech).
The mouse GLP-1 receptor cDNA fragment was inserted to pIRES-gfp to thereby obtain a mouse GLP-1 receptor-expressing vector mGLP-1R/pIRES-gfp. The DNA sequence of the obtained vector was confirmed using ABI3100-Avant (Applied Biosystems).
2. Preparation of Mouse GLP-1 Receptor-Expressing CHO-K1 Cells
CHO-K1 cells (ATCC catalog No. CCL-61) were transfected with the obtained mGLP-1R/pIRES-gfp using FuGENE (registered trademark) (Roche) according to the instruction manual. The transfected CHO-K1 cells were cultured in RPMI1640 medium (Wako Pure Chemical Industries) containing 10% FCS (Hyclone) and penicillin-streptomycin (SIGMA). Drug selection was conducted by the addition of 1.0 mg/ml G418 (Wako Pure Chemical Industries). The drug resistance cells were sorted with a cell sorter (EPICS ALTRA, Beckman Coulter) using a GFP expression level as an index. After the sorting, the limiting dilution method was conducted to obtain cells highly expressing GFP, namely, cells highly expressing a mouse GLP-1 receptor. The obtained cells were used as mouse GLP-1 receptor-expressing CHO-K1 cells in the experiment shown below.
3. Analysis of Agonist Effect of Oligosaccharide Chain Added GLP-1 Peptide (Ability to Synthesize cAMP)
The mouse GLP-1 receptor-expressing CHO-K1 cells prepared in the preceding paragraph 2 were used to evaluate the agonist effect of the oligosaccharide chain added GLP-1 peptide using the ability to synthesize cAMP as an index.
The mouse GLP-1 receptor-expressing CHO-K1 cells were suspended at a concentration of 5×10^5 cells/ml in RPMI1640 medium containing 10% FCS. The cell suspension was seeded at a concentration of 100 μL per well to a flat-bottomed 96-well plate (Falcon) and cultured at 5% CO2 at 37° C. for 16 hours. The culture supernatant was discarded. The oligosaccharide chain added GLP-1 peptide dissolved in Krebs Ringer bicarbonate Buffer containing 2.5 mM glucose was added at a concentration of 100 μL/well and cultured at 37° C. for 30 minutes. The culture supernatant was immediately discarded. The amount of cAMP synthesized in the mouse GLP-1 receptor-expressing CHO-K1 cells was measured using cAMP ELISA Kit (GE Healthcare or Cayman) and used as an index for the agonist effect of the oligosaccharide chain added GLP-1 peptide on mouse GLP-1 receptors.
GLP-1 increases intracellular cAMP concentrations through the binding to its receptor and promotes insulin secretion. Thus, the activity of the oligosaccharide chain added GLP-1 peptide was evaluated using the ability to synthesize cAMP as an index. […]

In experiment [3] the test system is C57BL/6JJcl mice. The experiment can be described thus: Test Example 7: Oral Glucose Tolerance Test (OGTT). It is filed as in vivo. As to conditions: for dose dependence of activity of suppressing rise in blood-sugar levels in OGTT: doses 0.9 nmol/kg and 0.09 nmol/kg intraperitoneal. An outline of the steps:
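Overnight-fasted mice received oral glucose 1 mg/g 30 minutes after treatment. Orbital blood taken before and at 30, 60, 120 minutes post-glucose. Blood glucose measured by glucometer.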

Setting [4] is: 9 nmol/kg intraperitoneal 30 minutes before glucose 1 mg/g oral.

For `CC[C@H](C)[C@H](NC(=O)[C@H](Cc1ccccc1)NC(=O)[C@H](CCC(=O)O)NC(=O)[C@H](CCCCN)NC(=O)[C@H](C)NC(=O)[C@H](C)NC(=O)[C@H](CCC(N)=O)NC(=O)CNC(=O)[C@H](CCC(=O)O)NC(=O)[C@H](CC(C)C)NC(=O)[C@H](Cc1ccc(O)cc1)NC(=O)[C@H](CO)NC(=O)[C@H](CO)NC(=O)[C@@H](NC(=O)[C@H](CC(=O)O)NC(=O)[C@H](CO)NC(=O)[C@@H](NC(=O)[C@H](Cc1ccccc1)NC(=O)[C@@H](NC(=O)CNC(=O)[C@H](CCC(=O)O)NC(=O)[C@H](C)NC(=O)[C@@H](N)Cc1c[nH]cn1)[C@@H](C)O)[C@@H](C)O)C(C)C)C(=O)N[C@@H](C)C(=O)N[C@@H](Cc1c[nH]c2ccccc12)C(=O)N[C@@H](CC(C)C)C(=O)N[C@H](C(=O)N[C@@H](CCCCN)C(=O)NCC(=O)N[C@@H](CSCC(=O)N[C@@H]1O[C@H](CO)[C@@H](O[C@@H]2O[C@H](CO)[C@@H](O[C@@H]3O[C@H](CO[C@H]4O[C@H](CO)[C@@H](O)[C@H](O)[C@@H]4O[C@@H]4O[C@H](CO)[C@@H](O[C@@H]5O[C@H](CO[C@]6(C(=O)O)C[C@H](O)[C@@H](NC(C)=O)[C@H]([C@H](O)[C@H](O)CO)O6)[C@H](O)[C@H](O)[C@H]5O)[C@H](O)[C@H]4NC(C)=O)[C@@H](O)[C@H](O[C@H]4O[C@H](CO)[C@@H](O)[C@H](O)[C@@H]4O[C@@H]4O[C@H](CO)[C@@H](O[C@@H]5O[C@H](CO[C@]6(C(=O)O)C[C@H](O)[C@@H](NC(C)=O)[C@H]([C@H](O)[C@H](O)CO)O6)[C@H](O)[C@H](O)[C@H]5O)[C@H](O)[C@H]4NC(C)=O)[C@@H]3O)[C@H](O)[C@H]2NC(C)=O)[C@H](O)[C@H]1NC(C)=O)C(=O)NCC(=O)O)C(C)C` [Example 4, 36Cys GLP-1-disialo], the “effect of lowering blood-sugar levels in db/db mice” value in experiment [1] is given as “strong effect of lowering blood-sugar levels”. In addition, the “durability of effect of lowering blood-sugar levels in db/db mice” value in experiment [1] is “blood-sugar levels were kept at low levels after 300 minutes”. Further, the “cAMP synthesis activity compared with GLP-1 (in words)” value in experiment [2] was “activity equal to or more than that of the GLP-1”. For the same compound, the “activity of suppressing rise in blood-sugar levels in OGTT” value in experiment [3] (0.09 nmol/kg intraperitoneal) is “equivalent to that of the GLP-1 at a dose of 9 nmol/kg”. Further, the entries for the “effect of suppressing rise in blood-sugar levels in OGTT” value in experiment [3] (0.9 nmol/kg intraperitoneal) and in experiment [3] (setting [4]) were “suppressed rise in blood-sugar levels almost completely” and “strong effect of suppressing rise in blood-sugar levels”, respectively. In addition, in experiment [3], the “dose dependence of activity of suppressing rise in blood-sugar levels in OGTT” value was “dose-dependent activity of suppressing rise in blood-sugar levels”. Moreover, the “activity of suppressing rise in blood-sugar levels in OGTT relative to GLP-1 (times)” value in experiment [3] (from doses giving equivalent effect, GLP-1 at 9 nmol/kg) is on record as “about 100 times”.
Regarding `CC[C@H](C)[C@H](NC(=O)[C@H](Cc1ccccc1)NC(=O)[C@H](CCC(=O)O)NC(=O)[C@H](CCCCN)NC(=O)[C@H](C)NC(=O)[C@H](C)NC(=O)[C@H](CCC(N)=O)NC(=O)CNC(=O)[C@H](CCC(=O)O)NC(=O)[C@H](CC(C)C)NC(=O)[C@H](Cc1ccc(O)cc1)NC(=O)[C@H](CO)NC(=O)[C@H](CO)NC(=O)[C@@H](NC(=O)[C@H](CC(=O)O)NC(=O)[C@H](CO)NC(=O)[C@@H](NC(=O)[C@H](Cc1ccccc1)NC(=O)[C@@H](NC(=O)CNC(=O)[C@H](CCC(=O)O)NC(=O)[C@H](C)NC(=O)[C@@H](N)Cc1c[nH]cn1)[C@@H](C)O)[C@@H](C)O)C(C)C)C(=O)N[C@@H](C)C(=O)N[C@@H](Cc1c[nH]c2ccccc12)C(=O)N[C@@H](CC(C)C)C(=O)N[C@H](C(=O)N[C@@H](CSCC(=O)N[C@@H]1O[C@H](CO)[C@@H](O[C@@H]2O[C@H](CO)[C@@H](O[C@@H]3O[C@H](CO[C@H]4O[C@H](CO)[C@@H](O)[C@H](O)[C@@H]4O[C@@H]4O[C@H](CO)[C@@H](O[C@@H]5O[C@H](CO[C@]6(C(=O)O)C[C@H](O)[C@@H](NC(C)=O)[C@H]([C@H](O)[C@H](O)CO)O6)[C@H](O)[C@H](O)[C@H]5O)[C@H](O)[C@H]4NC(C)=O)[C@@H](O)[C@H](O[C@H]4O[C@H](CO)[C@@H](O)[C@H](O)[C@@H]4O[C@@H]4O[C@H](CO)[C@@H](O[C@@H]5O[C@H](CO[C@]6(C(=O)O)C[C@H](O)[C@@H](NC(C)=O)[C@H]([C@H](O)[C@H](O)CO)O6)[C@H](O)[C@H](O)[C@H]5O)[C@H](O)[C@H]4NC(C)=O)[C@@H]3O)[C@H](O)[C@H]2NC(C)=O)[C@H](O)[C@H]1NC(C)=O)C(=O)NCC(=O)N[C@@H](CCCNC(=N)N)C(=O)NCC(=O)O)C(C)C` [Example 23, 34Cys GLP-1-disialo], in experiment [1], the “effect of lowering blood-sugar levels in db/db mice” value is listed as “strong effect of lowering blood-sugar levels” and the “durability of effect of lowering blood-sugar levels in db/db mice” value is on record as “effects of lowering blood-sugar levels were slightly weakened over time”. The “cAMP synthesis activity compared with GLP-1 (in words)” value in experiment [2] is recorded as “activity equal to or more than that of the GLP-1”. The “efficacy relative to 30Cys GLP-1-disialo and 36Cys GLP-1-disialo at the same dose in OGTT” value in experiment [3] (0.9 nmol/kg intraperitoneal) was “about ½”. The “effect of suppressing rise in blood-sugar levels in OGTT” value in experiment [3] (setting [4]) is on record as “strong effect of suppressing rise in blood-sugar levels”. For the same compound, the “dose dependence of activity of suppressing rise in blood-sugar levels in OGTT” value in experiment [3] was “dose-dependent activity of suppressing rise in blood-sugar levels”.
